# Test results published in US10150748B2, “Salt or abexinostat, associated crystalline form, a process for their preparation and pharmaceutical compositions containing them” (Pharmacyclics LLC, priority 2013, dated 2018).
# Assay: Hygroscopicity by dynamic vapor sorption (DVS)
# Type: physicochemical
# Details: relative humidities from 0% to 90% at 25° C.
# Experimental: Hygroscopicity of form I of abexinostat tosylate was assessed using dynamic vapor sorption (DVS) technique. 5 to 10 mg of the drug substance test sample were accurately weighed into a DVS sample pan working at 25° C. under controlled humidity. The mass variation was recorded whilst drying under 0 percent RH (relative humidity) and during two subsequent cycles of increasing and decreasing linear variations of relative humidity in the range 0-90 percent RH at a rate of 10 percent per hour. The relative humidity was maintained constant when it reached either 0 or 90 percent RH until the mass variation was less than 0.002 percent, per minute within a limit of time of 15 h.
smiles,measurement,value
"CN(C)Cc1c(C(=O)NCCOc2ccc(C(=O)NO)cc2)oc2ccccc12.Cc1ccc(S(=O)(=O)O)cc1 [form I of abexinostat tosylate, N-hydroxy-4-{2-[3-(N,N-dimethylaminomethyl)benzofuran-2-ylcarbonylamino]ethoxy}benzamide tosylate]",increase in weight detected by DVS analysis,lower than 0.5%
